According to publication PMC5749684, “Tetrahydrocarbazoles are a novel class of potent P-type ATPase inhibitors with antifungal activity” (PLoS ONE, 2018):
Values after ≈ are worked out from the molar mass of the structure shown. Values joined by “and” are separate entries in the source; they are usually repeats but may differ in a detail not shown here. Equal values may be shown once. “Also recorded” adds a separate entry of the source.

Legend:
[1] = biological target: T1, Candida albicans Pma1 (Candida albicans, UniProt P28877); assay: ATP hydrolysis inhibition, C. albicans Pma1; format: biochemical; conditions: racemic compounds, n = 3
T1 construct: endogenous in cells
T1 sequence (P28877 whole entry): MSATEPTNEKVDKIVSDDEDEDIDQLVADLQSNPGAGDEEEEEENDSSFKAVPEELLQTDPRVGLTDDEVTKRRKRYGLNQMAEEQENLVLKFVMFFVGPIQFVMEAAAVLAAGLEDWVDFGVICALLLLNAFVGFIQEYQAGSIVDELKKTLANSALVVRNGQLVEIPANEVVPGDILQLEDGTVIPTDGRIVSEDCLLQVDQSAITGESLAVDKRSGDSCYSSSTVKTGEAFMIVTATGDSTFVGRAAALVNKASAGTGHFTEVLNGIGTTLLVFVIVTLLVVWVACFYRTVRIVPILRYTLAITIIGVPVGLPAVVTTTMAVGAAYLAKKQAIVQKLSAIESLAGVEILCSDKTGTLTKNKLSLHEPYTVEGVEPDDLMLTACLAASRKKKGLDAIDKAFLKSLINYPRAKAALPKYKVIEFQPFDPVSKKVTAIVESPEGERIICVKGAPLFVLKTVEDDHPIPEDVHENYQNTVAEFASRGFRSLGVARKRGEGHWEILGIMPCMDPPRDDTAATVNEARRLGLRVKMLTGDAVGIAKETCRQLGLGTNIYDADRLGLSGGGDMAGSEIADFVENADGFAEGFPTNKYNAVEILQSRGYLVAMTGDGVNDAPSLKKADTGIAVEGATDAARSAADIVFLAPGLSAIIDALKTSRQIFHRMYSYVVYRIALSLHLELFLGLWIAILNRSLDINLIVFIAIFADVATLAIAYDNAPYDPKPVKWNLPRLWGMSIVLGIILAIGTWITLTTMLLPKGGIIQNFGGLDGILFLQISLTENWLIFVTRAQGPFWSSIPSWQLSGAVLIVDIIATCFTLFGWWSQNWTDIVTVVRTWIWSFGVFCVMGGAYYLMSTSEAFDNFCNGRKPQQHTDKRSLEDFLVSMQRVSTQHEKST
Description: Candida albicans microsomes were prepared from 100 mL overnight culture in YPD (10 g/L yeast extract (BD, Sparks, MD), 20 g/L Bacto peptone (BD, Sparks, MD), 20 g/L D-(+)-glucose), transferred to 1 L YPD and grown at RT, 150 rpm, for 7 h. Cells were harvested and washed in deionized water followed by centrifugation at 3360 x g. The cells were glucose-activated by the addition of 10% (w/v) D-(+)-glucose for 10 minutes while shaking. This suspension was then centrifuged at 3,360 x g for 3 minutes and 60–80 g of cells (wet weight) were resuspended in homogenization buffer (50 g/L glucose, 28.3% (v/v) glycerol, 100 mM Tris-HCl pH 7.25, 10 mM EDTA pH 8.0, 50 mM KCl, 1 mM DTT, 200 μM PMSF, 2 μg/ml Pepstatin A), and disrupted with 165 g glassbeads (500 μm diameter) in a BeadBeater (Biospec Product, Bartlesville, OK). The disrupted cells were centrifuged at 4°C for 5 and 15 minutes at 1,400 x g and 12,000 x g, respectively. The supernatant was collected and centrifuged at 251,000 x g for 1 h, and the membrane fraction was collected and homogenized in GTEK20 buffer (20% (v/v) glycerol, 10 mM Tris-HCl pH 7.25, 25 mM KCl, 0.5 mM EDTA pH 8.0, 1 mM DTT, 0.2 mM PMSF, 2 μg/mL Pepstatin A).
(§1) ATPase activity was determined by measuring the amount of liberated phosphate from ATP hydrolysis. The ATPase assay was performed in 96 well plates in a final reaction volume of 60 μL. 0.1–0.2 μg/well of DOC extracted SERCA membrane or the Na^+,K^+-ATPase was used, while 1–2.5 μg/well was used of the Pma1 membrane preparation. Reactions, including protein membrane preparation and various concentrations of exogenously added compounds, were conducted in the following buffers; Pma1 buffer: 17.5 mM MOPS-NaOH pH 7, 7 mM MgSO4, 44 mM KNO3 (vacuolar ATPase inhibitor), 22 mM NaN3 (mitochondrial ATPase inhibitor), 0.22 mM Na2MoO4 (acid phosphatase inhibitor); SERCA buffer: 9 mM MOPS-NaOH pH 7, 2.7 mM MgCl2, 0.1 mM CaCl2 and 72 mM KCl. Na^+,K^+-ATPase buffer: 30 mM MOPS-NaOH pH 7, 40 mM NaCl, 4 mM MgCl2 and 20 mM KCl. Reactions were initiated by the addition of Na-ATP to a final concentration of 2.5 mM (Pma1 and Na^+,K^+-ATPase) or 5 mM (SERCA), followed by 30 minutes incubation at 30°C. […] Absorption was measured at 860 nm after additional 30 minutes incubation at RT.

[2] = test system: Candida albicans SC5314; assay: Fungal growth inhibition, C. albicans SC5314; format: cell-based; conditions: MIC defined as 50% growth inhibition, 24 h, n = 3–6
Source text: (§2) Fungal isolates were purchased from American Type Culture Collection, except for C. glabrata strain Cg003, which was kindly provided by Julius Subik, Comenius University in Bratislava, Slovak Republic. Cg003 is a clinical isolate, characterized to be resistant to fluconazole and itraconazole due to overexpression of the multidrug resistance efflux pumps Cdr1p and Cdr2p. Saccharomyces cerevisiae (ATCC 9763), Candida albicans (ATCC 90028), Candida albicans (SC5314), Candida glabrata (ATCC 90030), Candida glabrata (Cg003) and Candida krusei (ATCC 6258) were grown in Sabouraud broth (40 g/L D-glucose, 10 g/L peptone, pH 5.6) or YPD (10 g/L yeast extract, 20 g/L Bacto-peptone, 20 g/L glucose) medium to mid log phase, aliquoted into 20% (v/v) glycerol and cryopreserved as stocks at -80°C. For each growth assay, cells from these stocks were diluted in sterile water to OD600 = 0.025, which corresponds to a final starting inoculum of 0.5–2.5 x 10^5 CFU/mL. Growth assays were carried out by pipetting 3 μL compound dissolved in DMSO, 100 μL cell suspension and 97 μL 2 x RPMI media (20.8 g/L RPMI-1640 (Sigma-Aldrich catalog number R6504) 330 mM MOPS, 36 g/L glucose) into a microtiter plate and incubating for 24 h at 34°C, followed by OD measurement at 490 nm. The minimum inhibitory concentration (MIC) was defined as 50% growth inhibition of the microorganism as this measurement best represented the antifungal activity of the compounds. Standard errors were typically below 5%.

[3] = test system: Saccharomyces cerevisiae ATCC 9763; assay: Fungal growth inhibition, S. cerevisiae ATCC 9763; format: cell-based; conditions: ATCC9763, MIC defined as 50% growth inhibition, 24 h, n = 3–6
Source text: as §2

[4] = biological target: T2, Saccharomyces cerevisiae Pma1 (Saccharomyces cerevisiae, UniProt P05030); assay: ATP hydrolysis inhibition, S. cerevisiae Pma1; format: biochemical; conditions: for Selectivity among P-type ATPases (in words): Pma1 versus SERCA and Na+,K+-ATPase; for Pma1 inhibition (in words): Pma1 species not specified
T2 construct: containing the full-length cDNA of the S. cerevisiae plasma membrane H^+-ATPase isoform PMA1; made in house; host or cells: Saccharomyces cerevisiae RS72
T2 sequence (P05030 whole entry, canonical isoform): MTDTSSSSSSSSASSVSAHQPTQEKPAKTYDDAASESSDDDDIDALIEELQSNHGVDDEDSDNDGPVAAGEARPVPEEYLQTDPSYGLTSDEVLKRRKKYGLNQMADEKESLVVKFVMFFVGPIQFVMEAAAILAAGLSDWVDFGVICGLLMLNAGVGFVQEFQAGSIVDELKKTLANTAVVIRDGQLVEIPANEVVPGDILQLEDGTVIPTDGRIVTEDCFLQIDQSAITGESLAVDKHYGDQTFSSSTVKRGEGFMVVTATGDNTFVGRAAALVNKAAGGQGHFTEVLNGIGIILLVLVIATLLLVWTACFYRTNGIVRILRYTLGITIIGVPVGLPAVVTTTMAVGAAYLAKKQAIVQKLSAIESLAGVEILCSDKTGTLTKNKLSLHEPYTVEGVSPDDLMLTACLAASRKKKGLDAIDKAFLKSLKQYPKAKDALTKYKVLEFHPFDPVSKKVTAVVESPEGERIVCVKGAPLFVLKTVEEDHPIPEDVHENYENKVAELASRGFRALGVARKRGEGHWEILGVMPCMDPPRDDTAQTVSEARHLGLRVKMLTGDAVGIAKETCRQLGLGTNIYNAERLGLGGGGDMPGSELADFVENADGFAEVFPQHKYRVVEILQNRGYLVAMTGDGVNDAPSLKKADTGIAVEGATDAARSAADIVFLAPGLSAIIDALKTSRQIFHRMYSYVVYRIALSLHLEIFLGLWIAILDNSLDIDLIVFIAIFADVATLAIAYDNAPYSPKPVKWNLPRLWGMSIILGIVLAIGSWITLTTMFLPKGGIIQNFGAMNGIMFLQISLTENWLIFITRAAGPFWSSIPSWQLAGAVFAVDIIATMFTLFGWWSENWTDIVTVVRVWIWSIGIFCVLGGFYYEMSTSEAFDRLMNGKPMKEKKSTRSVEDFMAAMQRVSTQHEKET
Description: The compound libraries were purchased from Enamine Ltd, Ukraine and Chembridge Corp, USA. Library screening was performed in 96 well plates format and each compound was screened in the ATP hydrolysis assay at a final concentration of 20 μM. DMSO was used to determine the maximal ATPase activity and a blank with ATP in absence of Pma1 protein was used to determine the level of spontaneous ATP hydrolysis and used to determine background level. The percentage of compound inhibition was evaluated by subtracting the blank from each data point and normalizing to maximal ATP hydrolysis activity. […] Pma1 inhibitory hit compounds (IC50 <20 μM) with antifungal activity on both S. cerevisiae and C. albicans (MIC <100 μM) were re-purchased and re-evaluated to confirm the potency and identity of the compound.
Plasma membranes containing Pma1 were isolated from Saccharomyces cerevisiae RS72 cells containing the full-length cDNA of the S. cerevisiae plasma membrane H^+-ATPase isoform PMA1 under control of the PMA1 promoter as described.
as §1

[5] = ATP hydrolysis IC50 Saccharomyces cerevisiae Pma1, racemic compounds, n = 3
[6] = Pma1 IC50, Pma1 species not specified

Structure (SMILES)	IC50 [1]	MIC [2]	MIC [3]	IC50 [4, 5]	Selectivity among P-type ATPases (in words) [4]	Pma1 inhibition (in words) [4]	IC50 [4, 6]
FC(F)(F)Oc1ccc2c3c([nH]c2c1)C(NCc1ccc(Br)cc1)CCC3 (stereo not shown) [Compound 7]	2.47 ± 0.26 µM	15 µM (≈ 6.59 µg/mL)	1.5 µM (≈ 0.659 µg/mL)	2.43 ± 0.39 µM	more potent in inhibiting SERCA and the Na^+,K^+-ATPase than Pma1		
FC(F)(F)Oc1ccc2c3c([nH]c2c1)C(NCc1ccc(Cl)cc1)CCC3 (stereo not shown) [Compound 6]	3.89 ± 1.71 µM	7.5 µM (≈ 2.96 µg/mL)	5 ± 2.9 µM (≈ 1.97 µg/mL)	2.79 ± 0.36 µM	more potent in inhibiting SERCA and the Na^+,K^+-ATPase than Pma1		
Cn1c2c(c3cc(Cl)ccc31)CCCC2NCc1ccc(-c2ccccc2)cc1 (stereo not shown) [Compound 11]	> 20 µM	> 20 µM	> 20 µM	> 20 µM		no activity against Pma1; also recorded: no inhibitory effect on Pma1	
FC(F)(F)Oc1ccc2c3c([nH]c2c1)C(NCCOc1ccc(Cl)cc1)CCC3 (stereo not shown) [Compound 8]	3.77 ± 1.04 µM	7.5 µM (≈ 3.19 µg/mL)	6.2 ± 2.6 µM (≈ 2.63 µg/mL)	3.57 ± 1.81 µM	more potent in inhibiting SERCA and the Na^+,K^+-ATPase than Pma1		
FC(F)(F)Oc1ccc2[nH]c3c(c2c1)CCCC3NCc1ccc(-c2ccccn2)cc1 (stereo not shown) [Compound 9]	5.56 ± 1.55 µM	7.5 µM (≈ 3.28 µg/mL)	7.5 µM (≈ 3.28 µg/mL)	4.73 ± 2.23 µM			5 to 7 µM
Clc1ccc2[nH]c3c(c2c1)CCCC3NCc1ccc(-c2ccccc2)cc1 (stereo not shown) [Compound 10]	9.7 ± 2.15 µM	6.8 ± 4.6 µM (≈ 2.63 µg/mL)	7.5 µM (≈ 2.9 µg/mL)	7 µM and 6.69 µM			5 to 7 µM
CN1CCC(NC2CCCc3c2[nH]c2cc(OC(F)(F)F)ccc32)CC1 (stereo not shown) [Compound 5]	130 ± 32.2 µM	150 µM (≈ 55.1 µg/mL)	11.6 ± 8.1 µM (≈ 4.26 µg/mL)	85.9 ± 10.3 µM		weak inhibitors of Pma1	
NC1CCCc2c1[nH]c1cc(OC(F)(F)F)ccc21 (stereo not shown) [Compound 4]	46 ± 14.5 µM	100 ± 43 µM (≈ 27 µg/mL)	7.5 µM (≈ 2.03 µg/mL)	75 ± 3.2 µM		weak inhibitors of Pma1	
CN(Cc1ccc(-c2ccccc2)cc1)C1CCCc2c1[nH]c1ccc(Cl)cc21 (stereo not shown) [Compound 12]	> 20 µM	> 20 µM	> 20 µM	> 20 µM	weakly selective for Na^+,K^+-ATPase only	no activity against Pma1; also recorded: no inhibitory effect on Pma1	
